Measurements taken from US7118895B2, “Process for producing aglycon by using diglycosidase and flavor-improved food containing the aglycon and converting agent to be used in the process” (Amano Enzyme Inc., priority 2000, dated 2006).

Legend:
Crude diglycosidase = assay: Examination of temperature in the conversion into isoflavone aglycons by diglycosidase using soybean materials; type: biochemical, Penicillium multicolor IAM7153; set-up: Decomposition efficiency of glycitin family in roasted soy flour / Decomposition efficiency of daidzin family in roasted soy flour / Decomposition efficiency of genistin family in soymilk / Decomposition efficiency of daidzin family in soymilk / Decomposition efficiency of glycitin family in defatted soybean / Decomposition efficiency of daidzin family in defatted soybean: concentration or dose not given beside the values
Summary of the method: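 Soybean materials (50 mg) suspended in 20 mM acetate buffer pH 4.0 reacted with crude diglycosidase diluted to 1.88 AU/mL at 80, 65, 55, 45, 37 or 30° C. Reactions stopped with ethanol at 0, 1, 3 and 6 h; isoflavone glycosides and aglycons in supernatant detected by HPLC.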

[1] = system: β-Glucosidase derived from almond; assay: Reactivity toward various isoflavone glycosides (HPLC); type: biochemical; set-up: unit not given here; conditions: 55 °C, pH 4.0
Summary of the method: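 Enzymes at 0.75 AU/mL in pH 4.0 acetate buffer were reacted at 55° C with individual isoflavone glycosides (substrate stock 2 mM in methanol) in 20 mM acetate pH 4.0. Aglycone release followed at 0, 1, 3 and 6 h: ethanol-quenched, ODS HPLC with UV 260 nm, quantified against calibration curves.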

[2] = 55 °C, heat treatment of enzyme: no, 3 h
[3] = 55 °C, heat treatment of enzyme: no, 6 h
[4] = 55 °C, heat treatment of enzyme: yes, 6 h
[5] = 65° C., heat treatment of enzyme no, reaction time 0 h
[6] = 65° C., heat treatment of enzyme no, reaction time 1 h
[7] = 65° C., heat treatment of enzyme no, reaction time 3 h
[8] = 65° C., heat treatment of enzyme no, reaction time 6 h
[9] = 65° C., heat treatment of enzyme yes, reaction time 6 h
[10] = 65 °C, heat treatment of enzyme: no, 0 h
[11] = 65 °C, heat treatment of enzyme: no, 1 h
[12] = 65 °C, heat treatment of enzyme: no, 3 h
[13] = 65 °C, heat treatment of enzyme: no, 6 h
[14] = 65 °C, heat treatment of enzyme: yes, 6 h
[15] = 80° C., heat treatment of enzyme no, reaction time 0 h
[16] = 80° C., heat treatment of enzyme no, reaction time 1 h
[17] = 80° C., heat treatment of enzyme no, reaction time 3 h
[18] = 80° C., heat treatment of enzyme no, reaction time 6 h
[19] = 80° C., heat treatment of enzyme yes, reaction time 6 h
[20] = 80 °C, heat treatment of enzyme: no, 0 h
[21] = 80 °C, heat treatment of enzyme: no, 1 h
[22] = 80 °C, heat treatment of enzyme: no, 3 h
[23] = 80 °C, heat treatment of enzyme: no, 6 h
[24] = 80 °C, heat treatment of enzyme: yes, 6 h

O=c1c(-c2ccc(O)cc2)coc2cc(O[C@@H]3O[C@H](CO)[C@@H](O)[C@H](O)[C@H]3O)ccc12 [daidzin]
Decomposition efficiency of daidzin family in roasted soy flour (Crude diglycosidase; [2]): not detected | Decomposition efficiency of daidzin family in soymilk (Crude diglycosidase; [2]): not detected | Decomposition efficiency of daidzin family in roasted soy flour (Crude diglycosidase; [3]): not detected | Decomposition efficiency of daidzin family in soymilk (Crude diglycosidase; [3]): not detected | Decomposition efficiency of daidzin family in roasted soy flour (Crude diglycosidase; [4]): 51.1% | Decomposition efficiency of daidzin family in soymilk (Crude diglycosidase; [4]): 40.7% | Decomposition efficiency of daidzin family in concentrated soybean protein (Crude diglycosidase; [5]): 52.3% | Decomposition efficiency of daidzin family in defatted soybean (Crude diglycosidase; [5]): 40.5% | Decomposition efficiency of daidzin family in concentrated soybean protein (Crude diglycosidase; [6]): 1.8% | Decomposition efficiency of daidzin family in defatted soybean (Crude diglycosidase; [6]): not detected | Decomposition efficiency of daidzin family in concentrated soybean protein (Crude diglycosidase; [7]): 1.7% | Decomposition efficiency of daidzin family in defatted soybean (Crude diglycosidase; [7]): not detected | Decomposition efficiency of daidzin family in concentrated soybean protein (Crude diglycosidase; [8]): 1.7% | Decomposition efficiency of daidzin family in defatted soybean (Crude diglycosidase; [8]): not detected | Decomposition efficiency of daidzin family in concentrated soybean protein (Crude diglycosidase; [9]): 53.2% | Decomposition efficiency of daidzin family in defatted soybean (Crude diglycosidase; [9]): 32.8% | Decomposition efficiency of daidzin family in roasted soy flour (Crude diglycosidase; [10]): 48.6% | Decomposition efficiency of daidzin family in soymilk (Crude diglycosidase; [10]): 34.1% | Decomposition efficiency of daidzin family in roasted soy flour (Crude diglycosidase; [11]): not detected | Decomposition efficiency of daidzin family in soymilk (Crude diglycosidase; [11]): not detected | Decomposition efficiency of daidzin family in roasted soy flour (Crude diglycosidase; [12]): not detected | Decomposition efficiency of daidzin family in soymilk (Crude diglycosidase; [12]): not detected | Decomposition efficiency of daidzin family in roasted soy flour (Crude diglycosidase; [13]): not detected | Decomposition efficiency of daidzin family in soymilk (Crude diglycosidase; [13]): not detected | Decomposition efficiency of daidzin family in roasted soy flour (Crude diglycosidase; [14]): 49.7% | Decomposition efficiency of daidzin family in soymilk (Crude diglycosidase; [14]): 48.7% | Decomposition efficiency of daidzin family in concentrated soybean protein (Crude diglycosidase; [15]): 52.4% | Decomposition efficiency of daidzin family in defatted soybean (Crude diglycosidase; [15]): 40.5% | Decomposition efficiency of daidzin family in concentrated soybean protein (Crude diglycosidase; [16]): 22.6% | Decomposition efficiency of daidzin family in defatted soybean (Crude diglycosidase; [16]): 7.8% | Decomposition efficiency of daidzin family in concentrated soybean protein (Crude diglycosidase; [17]): 23.3% | Decomposition efficiency of daidzin family in defatted soybean (Crude diglycosidase; [17]): 19.2% | Decomposition efficiency of daidzin family in concentrated soybean protein (Crude diglycosidase; [18]): 25.5% | Decomposition efficiency of daidzin family in defatted soybean (Crude diglycosidase; [18]): 30.4% | Decomposition efficiency of daidzin family in concentrated soybean protein (Crude diglycosidase; [19]): 54.5% | Decomposition efficiency of daidzin family in defatted soybean (Crude diglycosidase; [19]): 60.9% | Decomposition efficiency of daidzin family in roasted soy flour (Crude diglycosidase; [20]): 48.6% | Decomposition efficiency of daidzin family in soymilk (Crude diglycosidase; [20]): 33.9% | Decomposition efficiency of daidzin family in roasted soy flour (Crude diglycosidase; [21]): 3.2% | Decomposition efficiency of daidzin family in soymilk (Crude diglycosidase; [21]): 8.9% | Decomposition efficiency of daidzin family in roasted soy flour (Crude diglycosidase; [22]): 4.4% | Decomposition efficiency of daidzin family in soymilk (Crude diglycosidase; [22]): 23.9% | Decomposition efficiency of daidzin family in roasted soy flour (Crude diglycosidase; [23]): 12.5% | Decomposition efficiency of daidzin family in soymilk (Crude diglycosidase; [23]): 42.9% | Decomposition efficiency of daidzin family in roasted soy flour (Crude diglycosidase; [24]): 51.3% | Decomposition efficiency of daidzin family in soymilk (Crude diglycosidase; [24]): 69.5% | aglycon ([1]; Reaction time 0 h): 0.9 | glucoside ([1]; Reaction time 0 h): 99.1 | aglycon ([1]; Reaction time 1 h): 9.1 | glucoside ([1]; Reaction time 1 h): 90.9 | aglycon ([1]; Reaction time 3 h): 10.8 | glucoside ([1]; Reaction time 3 h): 89.2 | aglycon ([1]; Reaction time 6 h): 11.3 | glucoside ([1]; Reaction time 6 h): 88.7
